# Test results reported in article PMC10997755, “Discovery of a small-molecule inhibitor that traps Polθ on DNA and synergizes with PARP inhibitors” (Nature Communications, 2024).
# “And” between values parts separate entries of the source, which are not always exact repeats. Identical values can stand only once.
# How the values were obtained:
# PolθΔL = molecular target: T1, PolθΔL (Homo sapiens, UniProt O75417, C1895G/DEL1861-1870/DEL1873-1894/DEL1918-1929/DEL2146-2157/DEL2161-2173/DEL2261-2287/DEL2291-2305/DEL2513-2514/DEL2518-2524/F2289G/F2526G/L1930G/L2158G/L2516G/M2525G/P1932S/P1933G/R2175G/R2306G/S1934G/V1931G); assay: PolθΔL primer extension; type: biochemical
# T1 construct: The gene encoding Polθ-pol (residues 1819–2590) was cloned into a pSUMOstar vector; 6xHis (N, cleaved yes); SUMO (N); made in house; host or cells: E. coli BL21(DE3)
# T1 sequence (O75417 with tags, fused parts or gaps with the stated changes): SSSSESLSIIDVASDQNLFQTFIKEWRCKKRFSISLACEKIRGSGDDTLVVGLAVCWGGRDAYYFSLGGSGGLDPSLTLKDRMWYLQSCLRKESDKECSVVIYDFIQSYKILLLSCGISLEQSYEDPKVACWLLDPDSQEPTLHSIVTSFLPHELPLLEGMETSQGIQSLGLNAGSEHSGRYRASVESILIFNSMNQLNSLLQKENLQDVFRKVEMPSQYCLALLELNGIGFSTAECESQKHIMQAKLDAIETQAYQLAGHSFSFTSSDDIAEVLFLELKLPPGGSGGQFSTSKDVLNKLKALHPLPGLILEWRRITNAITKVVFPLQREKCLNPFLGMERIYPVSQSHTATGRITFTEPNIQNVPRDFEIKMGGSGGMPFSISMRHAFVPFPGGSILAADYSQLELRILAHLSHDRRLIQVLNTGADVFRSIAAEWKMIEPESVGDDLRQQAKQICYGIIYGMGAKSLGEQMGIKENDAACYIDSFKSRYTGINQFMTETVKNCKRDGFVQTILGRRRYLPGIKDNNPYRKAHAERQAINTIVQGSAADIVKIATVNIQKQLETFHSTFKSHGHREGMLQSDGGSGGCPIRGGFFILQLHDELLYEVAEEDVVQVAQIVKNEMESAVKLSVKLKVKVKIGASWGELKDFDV
# BRCA2-NULL cells = assay: Clonogenic assay (number of colonies counted); type: cell-based; conditions: three replicates
# Text: Supplement 41467_2024_46593_MOESM7_ESM.xlsx, sheet "Supplem 1 b" | column: BRCA2-NULL
# DLD1 BRCA2 -/- cells = assay: Apoptosis assay (FITC active caspase-3); type: cell-based; parameters: FITC+ AVG / FITC- AVG: unit not given here; conditions: for % population FITC Caspase-3 Negative / % population FITC Caspase-3 Positive: bar matched by sums to 100; for FITC+ AVG / FITC- AVG: DLD1 BRCA2 null
# Experimental: DLD1 BRCA2 -/-, DLD1 Parental cells were plated on six well plates and treated with RTX-161 1 day after plating. Medium was replaced every 2 days with RTX-161. Cells were harvested 6 days after plating for apoptosis assay using FITC active caspase-3 apoptosis kit (BD biosciences, catalog # 550480) according to manufacturer’s instructions and analyzed by FACS with Celesta (Becton Dickinson).
# VC8 cells = assay: Clonogenic assay; type: cell-based, Chinese hamster; conditions: for percent suvival: VC8 cells
# Experimental: Cells were plated on six or twelve or twenty-four well plates. In six well plate, 1000 cells/ well of BRCA2 -/-, BRCA1 -/-, PALB2 mut and 500 cells/ well of wildtype pair was plated; In twelve well plate, 600 cells/ well of BRCA2 -/-, BRCA1 -/-, PALB2 mut and 400 cells/ well of wildtype pair was plated; In twenty-four well plate, 500 cells/ well of BRCA2 -/-, BRCA1 -/-, PALB2 mut and 300 cells/ well of wildtype pair was plated. For MEFs, 300 cells per well in six-well plate were seeded. The medium was replaced every 2 days until the colonies were ready for staining in 10–12 days. For staining: Medium was removed from plates, and cells were rinsed with PBS. Fixation was carried out with—Water: Ethanol: Acetic acid (5:4:1) for 30 min followed by staining of colonies with 0.5% crystal violet in Water: Ethanol (3:2) for 2 h at room temperature. The plates were rinsed with water and left for drying overnight at room temperature. Colonies were then counted and IC50 was calculated using results from 3 or more independent experiments. Response curves are shown as mean colony formation +/- S.E.M.
# Data are expressed as mean ± SEM from at least 3 independent experiments with triplicates for each condition unless stated otherwise. When conducting comparison between two groups, two-tailed unpaired t-test was used. Significance was assumed at p < 0.05. Asterisks in the figures indicate significance, ^∗p < 0.05, ^∗∗p < 0.01, ^∗∗∗p < 0.001. Combenefit® software version 2.021 was used to perform synergy analyses for drug combinations between RTx-161 and PARPi. GraphPad Prism 9 software was used to calculate IC50.
# Pol Eta = molecular target: T2, Pol Eta (Homo sapiens, UniProt Q9Y253); assay: Primer extension by recombinant Pols (selectivity); type: biochemical
# T2 sequence (Q9Y253 1-713): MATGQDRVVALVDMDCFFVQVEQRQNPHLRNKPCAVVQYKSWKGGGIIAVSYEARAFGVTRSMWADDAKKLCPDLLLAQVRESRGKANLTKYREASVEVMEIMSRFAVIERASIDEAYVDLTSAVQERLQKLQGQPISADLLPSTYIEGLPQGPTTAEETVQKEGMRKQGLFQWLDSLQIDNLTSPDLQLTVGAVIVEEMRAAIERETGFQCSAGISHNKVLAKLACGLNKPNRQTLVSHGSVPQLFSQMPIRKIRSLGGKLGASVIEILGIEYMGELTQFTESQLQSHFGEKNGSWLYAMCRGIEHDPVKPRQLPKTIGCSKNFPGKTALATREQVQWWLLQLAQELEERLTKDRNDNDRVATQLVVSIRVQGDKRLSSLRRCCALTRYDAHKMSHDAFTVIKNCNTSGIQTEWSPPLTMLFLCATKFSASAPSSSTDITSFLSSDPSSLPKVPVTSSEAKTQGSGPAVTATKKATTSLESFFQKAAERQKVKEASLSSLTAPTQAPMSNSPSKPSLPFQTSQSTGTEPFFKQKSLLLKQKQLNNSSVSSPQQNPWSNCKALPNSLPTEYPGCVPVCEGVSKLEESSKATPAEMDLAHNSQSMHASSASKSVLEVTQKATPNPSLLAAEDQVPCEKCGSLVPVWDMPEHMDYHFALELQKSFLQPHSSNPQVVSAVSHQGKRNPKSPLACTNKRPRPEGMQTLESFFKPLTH
compound,measurement,setting,value
CN(C(=O)Oc1ccc(C(F)(F)F)cc1C(F)(F)F)c1ccc(F)cc1 [MC160385],inhibition of PolθΔL primer extension,PolθΔL,inhibits
same,number of olonies counted,BRCA2-NULL cells; MC160385 2.5 μM,67 and 60 and 64
same,number of olonies counted,BRCA2-NULL cells; MC160385 5 μM,56 and 64 and 62
same,number of olonies counted,BRCA2-NULL cells; MC160385 10 μM,57 and 62 and 60
same,number of olonies counted,BRCA2-NULL cells; MC160385 20 μM,59 and 56 and 58
CN(C(=O)Oc1c(N2CCN(CCO)C2=O)cc(C(F)(F)F)cc1C(F)(F)F)c1ccc(F)cc1 [RTx-161],% population FITC Caspase-3 Negative,DLD1 BRCA2 -/- cells; 10 uM RTX-161,92%
same,% population FITC Caspase-3 Positive,DLD1 BRCA2 -/- cells; 10 uM RTX-161,8%
same,% population FITC Caspase-3 Negative,DLD1 BRCA2 -/- cells; 20 uM RTX-161,90%
same,% population FITC Caspase-3 Positive,DLD1 BRCA2 -/- cells; 20 uM RTX-161,10%
same,FITC+ AVG,"DLD1 BRCA2 -/- cells; 10 uM, left block of sheet",8.433
same,FITC- AVG,"DLD1 BRCA2 -/- cells; 10 uM, left block of sheet",91.5667
same,FITC+ AVG,"DLD1 BRCA2 -/- cells; 10 uM, middle block of sheet",12.1
same,FITC- AVG,"DLD1 BRCA2 -/- cells; 10 uM, middle block of sheet",87.9
same,FITC+ AVG,"DLD1 BRCA2 -/- cells; 10 uM, right block of sheet",12.3333
same,FITC- AVG,"DLD1 BRCA2 -/- cells; 10 uM, right block of sheet",87.6667
same,FITC+ AVG,"DLD1 BRCA2 -/- cells; 20 uM, left block of sheet",9.633
same,FITC- AVG,"DLD1 BRCA2 -/- cells; 20 uM, left block of sheet",90.3667
same,FITC+ AVG,"DLD1 BRCA2 -/- cells; 20 uM, middle block of sheet",13.8333
same,FITC- AVG,"DLD1 BRCA2 -/- cells; 20 uM, middle block of sheet",86.1667
same,FITC+ AVG,"DLD1 BRCA2 -/- cells; 20 uM, right block of sheet",13.3333
same,FITC- AVG,"DLD1 BRCA2 -/- cells; 20 uM, right block of sheet",86.6667
same,apoptosis,DLD1 BRCA2 -/- cells; versus parental,selectively induced PARP cleavage and apoptosis
same,percent suvival,VC8 cells; RTX-161 1 micro M + ola 30.00 nano M,0%
same,percent suvival,"VC8 cells; RTX-161 1 micro M, ola 0.00 nano M",79.4521% and 92.4444% and 101.498%
same,percent suvival,VC8 cells; RTX-161 3 micro M + ola 30.00 nano M,0%
same,percent suvival,"VC8 cells; RTX-161 3 micro M, ola 0.00 nano M",62.3288% and 70.2222% and 85.0187%
same,combination with Olaparib,VC8 cells; clonogenic survival,significantly reduced cellular resistance to Olaparib
same,% Full Extension,Pol Eta; Pol Eta,78.72%
same,% Inhibition Compared to Control,Pol Eta; Pol Eta,-2.54%
same,% Relative Maximum Extension,Pol Eta; Pol Eta,102.54%
same,inhibition of primer extension,"Pol Eta; selectivity panel, Pol named in Supplementary Fig. 1h",no inhibition
